Data as given in the NIST ThermoML archive (doi:10.1021/je049579x).
Where “and” joins values, the source holds several entries; their conditions need not be identical. Equal entries are not always repeated. Numbers after ± are expanded uncertainties.

Conditions: Crystal, Torsion effusion method

## [I][Lu]([I])[I] [lutetium triiodide]
862 K
  vapor or sublimation pressure: 3e-05 ± 9e-06 kPa
875 K
  vapor or sublimation pressure: 6e-05 ± 9e-06 kPa
883 K
  vapor or sublimation pressure: 7.6e-05 ± 9e-06 kPa
888 K
  vapor or sublimation pressure: 8.9e-05 ± 1.2e-05 kPa
892 K
  vapor or sublimation pressure: 7.6e-05 ± 1.1e-05 kPa
893 K
  vapor or sublimation pressure: 0.000105 ± 2.5e-05 kPa
894 K
  vapor or sublimation pressure: 0.00012 ± 2.2e-05 kPa
895 K
  vapor or sublimation pressure: 0.00012 ± 6e-06 kPa
896 K
  vapor or sublimation pressure: 0.000151 ± 1.2e-05 kPa
897 K
  vapor or sublimation pressure: 0.00012 ± 2.5e-05 kPa
898 K
  vapor or sublimation pressure: 0.000151 ± 1.6e-05 kPa
899 K
  vapor or sublimation pressure: 0.000151 ± 1.2e-05 kPa
900 K
  vapor or sublimation pressure: 0.000105 ± 2.5e-05 kPa
901 K
  vapor or sublimation pressure: 0.00012 ± 2.9e-05 kPa
904 K
  vapor or sublimation pressure: 0.000151 ± 2.3e-05 kPa and 0.000182 ± 2.3e-05 kPa
905 K
  vapor or sublimation pressure: 0.000182 ± 4.9e-05 kPa
906 K
  vapor or sublimation pressure: 0.000224 ± 4.8e-05 kPa and 0.000166 ± 4.8e-05 kPa
909 K
  vapor or sublimation pressure: 0.000209 ± 4.3e-05 kPa and 0.000151 ± 4.4e-05 kPa and 0.000166 ± 4.4e-05 kPa
911 K
  vapor or sublimation pressure: 0.00024 ± 3.1e-05 kPa and 0.000195 ± 3.1e-05 kPa
912 K
  vapor or sublimation pressure: 0.000209 ± 4.3e-05 kPa
913 K
  vapor or sublimation pressure: 0.00024 ± 6e-06 kPa
915 K
  vapor or sublimation pressure: 0.000269 ± 2.2e-05 kPa
916 K
  vapor or sublimation pressure: 0.000302 ± 3.6e-05 kPa and 0.00024 ± 3.6e-05 kPa
917 K
  vapor or sublimation pressure: 0.000347 ± 5.8e-05 kPa
918 K
  vapor or sublimation pressure: 0.00024 ± 5.3e-05 kPa
919 K
  vapor or sublimation pressure: 0.000209 ± 4.3e-05 kPa
920 K
  vapor or sublimation pressure: 0.000269 ± 5.4e-05 kPa and 0.000288 ± 1e-06 kPa
921 K
  vapor or sublimation pressure: 0.000331 ± 1.3e-05 kPa
923 K
  vapor or sublimation pressure: 0.000372 ± 0.00011 kPa
924 K
  vapor or sublimation pressure: 0.000363 ± 7.2e-05 kPa
926 K
  vapor or sublimation pressure: 0.000269 ± 7.3e-05 kPa and 0.000447 ± 7.3e-05 kPa
927 K
  vapor or sublimation pressure: 0.000347 ± 6e-05 kPa
928 K
  vapor or sublimation pressure: 0.000513 ± 8.1e-05 kPa and 0.000363 ± 8.1e-05 kPa and 0.000389 ± 8.1e-05 kPa
929 K
  vapor or sublimation pressure: 0.000389 ± 6.4e-05 kPa
931 K
  vapor or sublimation pressure: 0.000513 ± 9.8e-05 kPa
932 K
  vapor or sublimation pressure: 0.000501 ± 6.6e-05 kPa
933 K
  vapor or sublimation pressure: 0.000575 ± 9.8e-05 kPa
935 K
  vapor or sublimation pressure: 0.000537 ± 0.00011 kPa
936 K
  vapor or sublimation pressure: 0.000513 ± 9.2e-05 kPa
937 K
  vapor or sublimation pressure: 0.000513 ± 0.0001 kPa
938 K
  vapor or sublimation pressure: 0.000724 ± 7.4e-05 kPa [middle of 4 runs]
940 K
  vapor or sublimation pressure: 0.000692 ± 6.2e-05 kPa
942 K
  vapor or sublimation pressure: 0.000759 ± 0.00019 kPa
943 K
  vapor or sublimation pressure: 0.000759 ± 0.00012 kPa and 0.000692 ± 0.00012 kPa
945 K
  vapor or sublimation pressure: 0.000692 ± 0.00013 kPa and 0.000575 ± 0.00013 kPa and 0.000724 ± 0.00013 kPa
948 K
  vapor or sublimation pressure: 0.001047 ± 7e-05 kPa and 0.000776 ± 7e-05 kPa
949 K
  vapor or sublimation pressure: 0.000933 ± 8.9e-05 kPa
950 K
  vapor or sublimation pressure: 0.001023 ± 5.6e-05 kPa
951 K
  vapor or sublimation pressure: 0.001072 ± 0.00022 kPa and 0.000891 ± 0.00022 kPa
952 K
  vapor or sublimation pressure: 0.001122 ± 0.00022 kPa
953 K
  vapor or sublimation pressure: 0.000933 ± 0.00015 kPa
954 K
  vapor or sublimation pressure: 0.001 ± 0.0002 kPa
955 K
  vapor or sublimation pressure: 0.000832 ± 0.0002 kPa
958 K
  vapor or sublimation pressure: 0.001413 ± 0.00019 kPa and 0.001445 ± 0.00019 kPa and 0.001148 ± 0.00019 kPa
959 K
  vapor or sublimation pressure: 0.001445 ± 9.2e-05 kPa and 0.00123 ± 9.2e-05 kPa
960 K
  vapor or sublimation pressure: 0.001514 ± 0.00036 kPa
961 K
  vapor or sublimation pressure: 0.001479 ± 0.00037 kPa
962 K
  vapor or sublimation pressure: 0.001349 ± 0.00037 kPa
963 K
  vapor or sublimation pressure: 0.001413 ± 0.00033 kPa
964 K
  vapor or sublimation pressure: 0.00123 ± 7.1e-05 kPa
967 K
  vapor or sublimation pressure: 0.00195 ± 0.00022 kPa and 0.001622 ± 0.00022 kPa
968 K
  vapor or sublimation pressure: 0.002239 ± 0.0001 kPa and 0.001995 ± 0.00011 kPa
969 K
  vapor or sublimation pressure: 0.001622 ± 0.0002 kPa
970 K
  vapor or sublimation pressure: 0.002138 ± 0.00034 kPa
972 K
  vapor or sublimation pressure: 0.001905 ± 0.00037 kPa and 0.002239 ± 0.00037 kPa and 0.00182 ± 0.00037 kPa
974 K
  vapor or sublimation pressure: 0.001738 ± 0.00053 kPa
975 K
  vapor or sublimation pressure: 0.002138 ± 0.00026 kPa
976 K
  vapor or sublimation pressure: 0.002951 ± 0.00024 kPa and 0.00257 ± 0.00025 kPa
977 K
  vapor or sublimation pressure: 0.002884 ± 0.00037 kPa and 0.002138 ± 0.00039 kPa
978 K
  vapor or sublimation pressure: 0.002455 ± 0.00038 kPa
979 K
  vapor or sublimation pressure: 0.002291 ± 0.00069 kPa and 0.002951 ± 0.00068 kPa
983 K
  vapor or sublimation pressure: 0.002951 ± 0.00057 kPa and 0.002399 ± 0.00059 kPa
985 K
  vapor or sublimation pressure: 0.003631 ± 0.00044 kPa and 0.003162 ± 0.00044 kPa and 0.003236 ± 0.00044 kPa
986 K
  vapor or sublimation pressure: 0.003981 ± 0.00045 kPa and 0.003715 ± 0.00044 kPa
987 K
  vapor or sublimation pressure: 0.00302 ± 0.00047 kPa
991 K
  vapor or sublimation pressure: 0.004266 ± 0.00041 kPa
993 K
  vapor or sublimation pressure: 0.004677 ± 0.00075 kPa and 0.00389 ± 0.00079 kPa
994 K
  vapor or sublimation pressure: 0.004074 ± 0.00078 kPa and 0.003388 ± 0.0008 kPa and 0.004169 ± 0.00078 kPa
995 K
  vapor or sublimation pressure: 0.005012 ± 0.00077 kPa and 0.003631 ± 0.00078 kPa
996 K
  vapor or sublimation pressure: 0.005012 ± 0.00063 kPa
1004 K
  vapor or sublimation pressure: 0.00631 ± 0.00065 kPa and 0.005623 ± 0.00031 kPa
